Earlier results, collected in paper PMC11990924, “Inhibition of Tyrosinase and Melanogenesis by Carboxylic Acids: Mechanistic Insights and Safety Evaluation” (Molecules, 2025).

Biological target: tyrosinase from BioVision, Inc. (claimed to be of human origin)
Parameters: method as in PMID 38909081
Conditions: cited from earlier work

For `O=C(O)CC(O)C(=O)O` (stereo not shown) [malic acid], the IC50 is listed as 87.5 µM.
